Structures can show the parent of a compound that is named as a salt.
Key:
[1] = Halothane anesthesia increasing activity (righting reflex); assay type: in vivo, mouse (male, ddy-strain); conditions: oral; for Time (minutes) between introduction of anesthesia and waking: 8 mg/kg, 1 hour before 4% Halothane
Experimental: Male mice of ddy-strain having about 20 g body weight are used. One test group consists of 10 mice. An aqueous Gummi Arabicum suspension of test compound (80 mg of a compound to be tested and 1 g of Gummi Arabicum/100 ml of physiological NaCl solution) is administered orally to each mouse at the dosage of 8 mg of test compound/kg body. One hour after the administration, each mouse is placed in a gas respiration chamber (13×13×24 cm) and oxygen gas containing 4% of Halothane [2-bromo-2-chloro-1,1,1-trifluoroethane] is blown into the chamber at the velocity of 2 l/min for 3 minutes. A mouse anaesthetized is taken out from the chamber and the time between the introduction of anesthesia to waking is measured by righting reflex as the index. To mice of the control group, 1% Gummi Arabicum aqueous physiological solution is orally administered at the dosage of 0.1 ml/10 g body. [Reference: M. J. Turnbull and J. W. Watkins: Br. J. Pharmac., 58, 27-35 (1976)]
Same procedures as mentioned in (II)-(A) are employed, except that the amount of test compound to be orally administered is changed in 4 steps at the dosage of 0.5 mg/kg, 1 mg/kg, 2 mg/kg and 4 mg/kg respectively to measure the relationship between the dosage and degree of strength of anesthesia increasing activity.

[2] = molecular target: T1, enucleated ileum of a guinea pig (Cavia porcellus, UniProt P31389); test: Antihistamine activity test in vitro (enucleated guinea pig ileum, histamine retraction, pA2 by Van Rossam method); conditions: 10^-6 g/ml test compound, 5 minutes before histamine, 36° C.
T1 construct: the tissue of ileum is cut to a length of 2.5 to 3.0 cm and suspended in an organ bath; from tissue; host or cells: isolated ileum from the ileocecal region of male guinea pig
T1 sequence (P31389 whole entry): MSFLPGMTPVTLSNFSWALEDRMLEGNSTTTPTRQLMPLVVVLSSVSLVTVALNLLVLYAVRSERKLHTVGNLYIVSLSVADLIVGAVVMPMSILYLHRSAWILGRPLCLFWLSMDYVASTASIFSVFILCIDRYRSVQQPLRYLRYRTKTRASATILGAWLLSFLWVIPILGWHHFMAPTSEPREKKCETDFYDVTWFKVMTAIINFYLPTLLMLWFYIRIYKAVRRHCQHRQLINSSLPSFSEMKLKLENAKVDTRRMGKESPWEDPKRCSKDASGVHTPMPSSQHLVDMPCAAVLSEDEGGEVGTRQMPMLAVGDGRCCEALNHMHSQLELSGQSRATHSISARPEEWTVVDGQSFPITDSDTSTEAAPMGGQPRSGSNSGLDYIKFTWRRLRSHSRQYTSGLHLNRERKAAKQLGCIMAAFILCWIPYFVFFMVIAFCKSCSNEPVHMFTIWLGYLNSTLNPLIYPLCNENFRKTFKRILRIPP
Experimental: As to the test method for determining antihistamine activity of a compound in vitro, a method of using an enucleated ileum of a guinea pig is generally accepted.
A male guinea pig having 300 to 500 g body weight is killed by blood letting. An ileum having a length of 15 cm being enculeated from the ileocecal region is dipped into Tyrode's solution (which is prepared from […], 0.2 g of KCl, 0.2 g of CaCl2, 1.0 g of glucose, 1.0 g of NaHCO3, 0.065 g of NaHPO4.2H2 O and 0.2135 g of MgCl2.6H2 O to make 1000 ml in total volume by adding water). Then the tissue of ileum is cut to a length of 2.5 to 3.0 cm and suspended in an organ bath filled with 30 ml of Tyrode's solution. The organ bath is kept at a temperature of 36° C. and a mixed gas consisting of 5% of CO2 and 95% of O2 is blown into the bath. 10 Minutes after the blowing, 10^-6 M of histamine is added to the bath to examine the sensitivity of the tissue and a reaction curve (control) with respect to the dosage of histamine is obtained. After the dosage of histamine-reaction curve (control) becomes constant, 10^-6 g/ml of a compound to be tested is added to the bath and further histamine is added 5 minutes later to obtain a dosage-reaction curve. Retraction of the ileum is recorded on a pen-recorder through an isotonic transducer [TD-112S manufactured by Nihon Koden]. Antihistamine activity of the test compound is determined as pA2 value by the "Van Rossam" method [J. M. Van Rossam; Arch. Inst. Pharmacodyn., 143, 299 (1963)] wherein the maximum retraction of ileum caused by histamine shown in the control curve is 100%.

Compound	Time (minutes) between introduction of anesthesia and waking [1] [min]	Kb [2] [nM]	Anesthesia increasing activity ([1]; 0.5 mg/kg) [min]	Anesthesia increasing activity ([1]; 1 mg/kg) [min]	Anesthesia increasing activity ([1]; 2 mg/kg) [min]	Anesthesia increasing activity ([1]; 4 mg/kg) [min]
O=C1CCc2c(cccc2OCC(O)CN2CCN(c3ccccc3)CC2)N1 (stereo not drawn) [Compound 1, 5-[2-Hydroxy-3-(4-phenylpiperazinyl)propoxy]-3,4-dihydrocarbostyril monohydrochloride]	9.3 ± 4.9	8.32	–	–	–	–
O=C1CCc2ccc(OCC(O)CN3CCN(c4ccccc4)CC3)cc2N1 (stereo not drawn) [Compound 2, 7-[2-Hydroxy-3-(4-phenylpiperazinyl)propoxy]-3,4-dihydrocarbostyril monohydrochloride]	11.7 ± 5.6	17.8	–	–	–	–
O=C1CCc2c(OCC(O)CN3CCN(c4ccc(Cl)cc4)CC3)ccc(Cl)c2N1 (stereo not drawn) [Compound 3, 8-Chloro-5-{2-hydroxy-3-[4-(4-chlorophenyl)piperazinyl]propoxy}-3,4-dihydrocarbostyril monohydrochloride]	7.9 ± 3.4	4.9	–	–	–	–
O=C1CCc2c(c(Cl)cc(Cl)c2OCC(O)CN2CCN(c3ccccc3)CC2)N1 (stereo not drawn) [Compound 4, 6,8-Dichloro-5-[2-hydroxy-3-(4-phenylpiperazinyl)propoxy]-3,4-dihydrocarbostyril monohydrochloride]	7.4 ± 2.7	1.12	–	–	–	–
O=C1CCc2c(OCC(O)CN3CCN(c4ccccc4)CC3)cccc2N1Cc1ccccc1 (stereo not drawn) [Compound 8, 1-Benzyl-5-[2-hydroxy-3-(4-phenylpiperazinyl)propoxy]-3,4-dihydrocarbostyril monohydrochloride]	7.5 ± 3.3	0.0158	–	–	–	–
Cc1ccc(N2CCN(CCCCOc3cccc4c3CCC(=O)N4)CC2)cc1 [Compound 10, 5-{4-[4-(4-Methylphenyl)piperazinyl]butoxy}-3,4-dihydrocarbostyril]	7.9 ± 3.7	1.26	–	–	–	–
C=CCN1C(=O)CCc2c(OCC(O)CN3CCN(c4ccc(C)cc4)CC3)cccc21 (stereo not drawn) [Compound 11, 1-Allyl-5-{2-hydroxy-3-[4-(4-methylphenyl)piperazinyl]propoxy}-3,4-dihydrocarbostyril]	6.8 ± 2.2	0.617	–	–	–	–
O=C1CCc2ccc(OCCCN3CCN(c4ccccc4)CC3)cc2N1Cc1ccccc1 [Compound 12, 1-Benzyl-7-[3-(4-phenylpiperazinyl)propoxy]-3,4-dihydrocarbostyril]	7.5 ± 3.5	6.17	–	–	–	–
Cc1cc(=O)[nH]c2cc(OCCCN3CCN(c4ccccc4)CC3)ccc12 [Compound 13, 4-Methyl-7-[3-(4-phenylpiperazinyl)propoxy]carbostyril]	8.1 ± 2.7	0.407	–	–	–	–
O=C1CCc2ccc(OCCCN3CCN(Cc4ccccc4)CC3)cc2N1 [Compound 14, 7-[3-(4-Benzylpiperazinyl)propoxy]-3,4-dihydrocarbostyril]	7.5 ± 4.3	0.794	–	–	–	–
Cc1ccc(N2CCN(CCCOc3ccc4c(c3)NC(=O)CC4)CC2)cc1 [Compound 15, 7-{3-[4-(4-Methylphenyl)piperazinyl]propoxy}-3,4-dihydrocarbostyril]	12.7 ± 3.5	0.331	–	–	–	–
O=C1CCc2ccc(OCCCN3CCN(c4ccc(Cl)cc4)CC3)cc2N1 [Compound 16, 7-{3-[4-(4-Chlorophenyl)piperazinyl]propoxy}-3,4-dihydrocarbostyril]	11.4 ± 5.6	0.234	–	–	–	–
CC1CN(CCCOc2ccc3c(c2)NC(=O)CC3)CCN1c1ccc(Cl)cc1 (stereo not drawn) [Compound 18, 7-{3-[3-Methyl-4-(4-chlorophenyl)piperazinyl]propoxy}-3,4-dihydrocarbostyril dihydrochloride]	8.4 ± 2.5	2.19	–	–	–	–
O=C1CCc2cccc(OCCCN3CCN(c4ccccc4)CC3)c2N1 [Compound 19, 8-[3-(4-Phenylpiperazinyl)propoxy]-3,4-dihydrocarbostyril]	9.3 ± 3.5	10.2	–	–	–	–
CC(=O)OC(COc1cccc2c1CCC(=O)N2)CN1CCN(c2ccccc2)CC1 (stereo not drawn) [Compound 20, 5-[2-Acetyloxy-3-(4-phenylpiperazinyl)propoxy]-3,4-dihydrocarbostyril]	9.8 ± 3.7	1.23	–	–	–	–
COc1cc(C(=O)OC(COc2cccc3c2CCC(=O)N3)CN2CCN(c3ccccc3)CC2)cc(OC)c1OC (stereo not drawn) [Compound 21, 5-[2-(3,4,5-Trimethoxybenzoyloxy)-3-(4-phenylpiperazinyl)propoxy]-3,4-dihydrocarbostyril]	8.1 ± 3.9	0.912	–	–	–	–
COc1ccccc1N1CCN(CCCOc2ccc3ccc(=O)[nH]c3c2)CC1 [Compound 22, 7-{3-[4-(2-Methoxyphenyl)piperazinyl]propoxy}-carbostyril dihydrochloride]	10.4 ± 4.1	11.7	–	–	–	–
CC(C)N1C(=O)CCc2ccc(OCCCN3CCN(c4ccccc4)CC3)cc21 [Compound 23, 1-(2-Propyl)-7-[3-(4-phenylpiperazinyl)propoxy]-3,4-dihydrocarbostyril dihydrochloride]	7.6 ± 4.2	0.589	–	–	–	–
O=C1CCc2ccc(OCCCN3CCN(c4cccc(F)c4)CC3)cc2N1 [Compound 24, 7-{3-[4-(3-Fluorophenyl)piperazinyl]propoxy}-3,4-dihydrocarbostyril]	11.6 ± 6.7	0.257	–	–	–	–
CC(COc1ccc2c(c1)NC(=O)CC2)CN1CCN(c2ccccc2)CC1 (stereo not drawn) [Compound 25, 7-[2-Methyl-3-(4-phenylpiperazinyl)propoxy]-3,4-dihydrocarbostyril]	7.8 ± 3.3	0.617	–	–	–	–
O=c1cc(OCCCN2CCN(c3ccccc3)CC2)c2ccccc2[nH]1 [Compound 26, 4-[3-(4-Phenylpiperazinyl)propoxy]carbostyril]	8.5 ± 3.7	2.19	–	–	–	–
O=c1cc(-c2ccccc2)c2ccc(OCCCN3CCN(c4ccccc4)CC3)cc2[nH]1 [Compound 27, 4-Phenyl-7-[3-(4-phenylpiperazinyl)propoxy]carbostyril]	7.8 ± 3.2	0.977	–	–	–	–
O=C1CCc2cc(Cl)c(OCCCN3CCN(c4ccccc4)CC3)c(Br)c2N1 [Compound 28, 6-Chloro-8-bromo-7-[3-(4-phenylpiperazinyl)propoxy]-3,4-dihydrocarbostyril dihydrochloride]	10.2 ± 5.8	0.229	–	–	–	–
COc1cc(N2CCN(CCCOc3ccc4c(c3)NC(=O)CC4)CC2)cc(OC)c1OC [Compound 29, 7-{3-[4-(3,4,5-Trimethoxyphenyl)piperazinyl]propoxy}-3,4-dihydrocarbostyril dihydrochloride]	9.3 ± 4.4	2.69	5.6 ± 2.8	6.6 ± 3.1	8.3 ± 3.7	13.6 ± 4.9
CCCCCCN1C(=O)CCc2ccc(OCCCN3CCN(c4ccccc4)CC3)cc21 [Compound 38, 1-Hexyl-7-[3-(4-phenylpiperazinyl)propoxy)]-3,4-dihydrocarbostyril dihydrochloride]	–	1.17	–	–	–	–
CCCC(C)C1(CC)C(=O)NC(=O)NC1=O (stereo not drawn) [Pentobarbital, reference compound]	–	–	5.3 ± 2.6	4.9 ± 3.5	6.3 ± 2.3	8.1 ± 3.1

Source: patent publication US4734416A, “Pharmaceutically useful carbostyril derivatives” (Otsuka Pharmaceutical Co., Ltd., priority 1978, dated 1988)
